Measured values as given in ChEMBL document CHEMBL5465560, “Selectivity Literature for EUbOPEN Chemogenomic Library” (2024).

Legend:
[1] = target: Tyrosine-protein kinase Fer (Homo sapiens) (UniProt P16591); details: at 10 µM
[2] = target: T1, Tyrosine-protein kinase receptor TYRO3 (Homo sapiens) (UniProt Q06418); experiment: Selectivity interaction (Millipore kinase profiler) EUB0000124b TYRO3; details: at 10 µM
T1 sequence (whole entry): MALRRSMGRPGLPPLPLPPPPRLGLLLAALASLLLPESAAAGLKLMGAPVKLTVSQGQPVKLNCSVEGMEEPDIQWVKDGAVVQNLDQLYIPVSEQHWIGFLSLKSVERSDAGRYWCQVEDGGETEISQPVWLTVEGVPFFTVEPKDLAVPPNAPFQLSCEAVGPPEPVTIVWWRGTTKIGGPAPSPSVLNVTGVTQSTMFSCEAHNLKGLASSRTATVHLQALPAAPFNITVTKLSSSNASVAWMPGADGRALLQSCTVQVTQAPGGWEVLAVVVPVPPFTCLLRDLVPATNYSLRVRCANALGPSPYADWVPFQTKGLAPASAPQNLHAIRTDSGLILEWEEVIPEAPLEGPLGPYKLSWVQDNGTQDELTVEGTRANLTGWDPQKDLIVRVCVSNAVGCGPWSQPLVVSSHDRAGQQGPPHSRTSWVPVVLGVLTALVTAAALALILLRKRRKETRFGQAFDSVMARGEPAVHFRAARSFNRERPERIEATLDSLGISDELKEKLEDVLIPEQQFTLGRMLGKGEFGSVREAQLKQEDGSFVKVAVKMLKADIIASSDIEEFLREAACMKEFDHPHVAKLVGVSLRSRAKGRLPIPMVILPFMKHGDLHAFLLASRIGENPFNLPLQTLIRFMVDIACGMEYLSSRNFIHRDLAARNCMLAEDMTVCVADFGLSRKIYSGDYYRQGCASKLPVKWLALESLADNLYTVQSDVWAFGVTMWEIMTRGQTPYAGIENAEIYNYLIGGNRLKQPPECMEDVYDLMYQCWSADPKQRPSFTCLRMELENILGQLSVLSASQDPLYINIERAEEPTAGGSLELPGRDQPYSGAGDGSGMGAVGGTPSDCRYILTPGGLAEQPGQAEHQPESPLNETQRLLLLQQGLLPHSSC

[3] = target: Vasopressin V1a receptor (Homo sapiens) (UniProt P37288); experiment: Selectivity interaction (Panel of kinases, GPCRs, ion channels and transporters (enzymatic assay)) EUB0000266bCl AVPR1A
[4] = target: Calcium/calmodulin-dependent protein kinase type 1D (Homo sapiens) (UniProt Q8IU85); experiment: Selectivity interaction (ActivX KiNativ screen (kinase selectivity in THP-1 cell lysates)) EUB0000639a CAMK1D; format: subcellular; details: lysate, at 0.01 µM
[5] = target: Serine/threonine-protein kinase PLK1 (Homo sapiens, UniProt P53350); experiment: Selectivity interaction (ActivX KiNativ screen (kinase selectivity in THP-1 cell lysates)) EUB0000639a PLK1; format: subcellular; details: lysate, at 0.2 µM
[6] = target: T2, Phosphatidylinositol 4,5-bisphosphate 3-kinase catalytic subunit delta isoform (Homo sapiens) (UniProt O00329); experiment: (§1) Selectivity interaction (ActivX KiNativ screen (kinase selectivity in THP-1 cell lysates)) EUB0000639a PIK3CD; format: subcellular; details: lysate, at 5 µM
T2 sequence (whole entry): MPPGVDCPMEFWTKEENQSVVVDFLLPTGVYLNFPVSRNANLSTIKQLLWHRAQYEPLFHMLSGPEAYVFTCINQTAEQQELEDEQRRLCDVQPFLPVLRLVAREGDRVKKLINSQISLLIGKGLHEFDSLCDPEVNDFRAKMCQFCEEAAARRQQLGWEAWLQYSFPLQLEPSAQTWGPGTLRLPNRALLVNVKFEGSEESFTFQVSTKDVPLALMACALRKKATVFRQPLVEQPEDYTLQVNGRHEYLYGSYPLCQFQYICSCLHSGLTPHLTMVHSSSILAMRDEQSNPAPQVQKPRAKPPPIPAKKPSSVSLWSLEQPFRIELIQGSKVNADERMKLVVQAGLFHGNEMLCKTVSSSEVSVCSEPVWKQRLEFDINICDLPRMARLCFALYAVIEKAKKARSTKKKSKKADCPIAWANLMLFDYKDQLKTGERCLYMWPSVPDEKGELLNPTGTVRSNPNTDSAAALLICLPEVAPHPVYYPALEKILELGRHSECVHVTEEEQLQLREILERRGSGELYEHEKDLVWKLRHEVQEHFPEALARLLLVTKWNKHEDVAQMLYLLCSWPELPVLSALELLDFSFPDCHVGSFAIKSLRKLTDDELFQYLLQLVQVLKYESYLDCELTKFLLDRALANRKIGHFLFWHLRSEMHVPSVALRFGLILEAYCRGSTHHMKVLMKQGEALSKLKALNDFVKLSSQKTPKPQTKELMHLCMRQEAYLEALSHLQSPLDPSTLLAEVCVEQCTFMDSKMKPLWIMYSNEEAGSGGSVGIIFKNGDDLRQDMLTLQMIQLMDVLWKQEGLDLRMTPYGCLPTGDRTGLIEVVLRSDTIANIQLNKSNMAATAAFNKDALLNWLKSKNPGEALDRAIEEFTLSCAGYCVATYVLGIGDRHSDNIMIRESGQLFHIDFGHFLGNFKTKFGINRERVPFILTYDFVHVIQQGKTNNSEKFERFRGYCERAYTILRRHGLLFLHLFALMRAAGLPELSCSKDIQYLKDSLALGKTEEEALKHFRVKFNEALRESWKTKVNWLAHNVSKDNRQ

[7] = target: T2, Phosphatidylinositol 4,5-bisphosphate 3-kinase catalytic subunit delta isoform (Homo sapiens); experiment: as §1; format: subcellular; details: lysate, at 0.01 µM
[8] = target: Phosphatidylinositol 4-kinase alpha (Homo sapiens, UniProt P42356); experiment: Selectivity interaction (Kinase panel (literature)) EUB0001199aCl PI4KA; details: at 1 µM
[9] = target: Tyrosine-protein kinase JAK1 (Homo sapiens, UniProt P23458); experiment: Selectivity interaction (KinomeScan (DiscoverX)) EUB0000595a JAK1; details: at 10 µM
[10] = target: Dual specificity testis-specific protein kinase 1 (Homo sapiens) (UniProt Q15569); details: at 10 µM
[11] = target: Serine/threonine-protein kinase MRCK gamma (Homo sapiens) (UniProt Q6DT37); details: at 10 µM
[12] = target: Serine/threonine-protein kinase PAK 1 (Homo sapiens) (UniProt Q13153); experiment: Selectivity interaction (KinomeScan (DiscoverX)) EUB0000229b PAK1; details: at 10 µM
[13] = target: Non-receptor tyrosine-protein kinase TYK2 (Homo sapiens, UniProt P29597); experiment: Selectivity interaction (KinomeScan (DiscoverX)) EUB0000655a TYK2; details: at 10 µM
[14] = target: SRSF protein kinase 3 (Homo sapiens) (UniProt Q9UPE1); experiment: Selectivity interaction (KinomeScan (DiscoverX)) EUB0000618a SRPK3; details: at 10 µM
[15] = target: Mitogen-activated protein kinase 7 (Homo sapiens) (UniProt Q13164); experiment: Selectivity interaction (Kinase panel (KiNativ target engagement assay in Jurkat cells)) EUB0001635a MAPK7; format: cell-based; details: Selectivity number of off-targets 0.0, Selectivity number of targets 233.0, Source Knowledge https://www.sciencedirect.com/science/article/pii/S2451945619300674?via%3Dihub, at 1 µM
Mitogen-activated protein kinase 7 (Homo sapiens), sequence (Q13164 2-816 limits assumed): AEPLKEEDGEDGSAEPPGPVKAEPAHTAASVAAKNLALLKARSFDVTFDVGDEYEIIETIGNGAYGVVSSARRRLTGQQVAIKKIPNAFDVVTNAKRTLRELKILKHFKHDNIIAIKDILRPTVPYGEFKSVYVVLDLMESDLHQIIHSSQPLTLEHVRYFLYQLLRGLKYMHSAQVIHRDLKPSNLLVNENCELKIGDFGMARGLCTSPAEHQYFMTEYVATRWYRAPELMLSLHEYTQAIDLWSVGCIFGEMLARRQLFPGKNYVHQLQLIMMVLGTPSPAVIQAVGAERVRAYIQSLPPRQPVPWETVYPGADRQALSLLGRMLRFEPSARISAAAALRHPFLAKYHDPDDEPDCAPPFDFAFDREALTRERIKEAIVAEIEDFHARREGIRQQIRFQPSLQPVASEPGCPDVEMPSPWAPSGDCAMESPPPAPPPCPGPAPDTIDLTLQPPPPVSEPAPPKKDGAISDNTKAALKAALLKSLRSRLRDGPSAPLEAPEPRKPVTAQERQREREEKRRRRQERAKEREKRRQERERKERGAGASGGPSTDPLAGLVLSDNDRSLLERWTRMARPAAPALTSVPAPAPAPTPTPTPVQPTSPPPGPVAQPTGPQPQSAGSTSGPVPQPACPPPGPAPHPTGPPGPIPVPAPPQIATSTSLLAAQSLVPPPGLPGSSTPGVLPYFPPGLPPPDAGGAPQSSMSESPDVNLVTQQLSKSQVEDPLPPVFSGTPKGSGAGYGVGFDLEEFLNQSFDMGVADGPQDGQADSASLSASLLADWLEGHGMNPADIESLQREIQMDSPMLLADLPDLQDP

Vasopressin V1a receptor (Homo sapiens), sequence (P37288 whole entry, looked up): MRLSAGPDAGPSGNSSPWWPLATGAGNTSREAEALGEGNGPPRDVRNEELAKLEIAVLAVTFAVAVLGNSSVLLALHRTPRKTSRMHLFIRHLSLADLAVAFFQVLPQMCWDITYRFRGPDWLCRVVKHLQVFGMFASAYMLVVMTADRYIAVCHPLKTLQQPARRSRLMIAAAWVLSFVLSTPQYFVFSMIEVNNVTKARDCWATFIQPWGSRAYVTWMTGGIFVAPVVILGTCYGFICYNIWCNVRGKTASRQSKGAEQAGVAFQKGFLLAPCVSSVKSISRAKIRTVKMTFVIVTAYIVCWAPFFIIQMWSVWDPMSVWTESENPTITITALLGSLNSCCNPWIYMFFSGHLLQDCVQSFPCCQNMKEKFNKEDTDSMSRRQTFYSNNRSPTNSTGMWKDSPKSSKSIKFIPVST
Calcium/calmodulin-dependent protein kinase type 1D (Homo sapiens), sequence (Q8IU85 whole entry, looked up): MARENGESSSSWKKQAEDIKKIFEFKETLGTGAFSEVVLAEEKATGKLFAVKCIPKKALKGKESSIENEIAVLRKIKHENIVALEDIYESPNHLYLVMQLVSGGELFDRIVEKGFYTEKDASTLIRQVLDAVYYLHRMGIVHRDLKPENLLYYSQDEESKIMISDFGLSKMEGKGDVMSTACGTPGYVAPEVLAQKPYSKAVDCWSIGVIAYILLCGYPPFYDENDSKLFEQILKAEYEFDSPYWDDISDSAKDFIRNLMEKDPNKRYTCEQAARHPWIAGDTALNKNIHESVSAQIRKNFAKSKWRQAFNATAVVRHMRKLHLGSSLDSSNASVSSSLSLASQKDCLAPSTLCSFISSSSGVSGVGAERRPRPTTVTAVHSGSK
Non-receptor tyrosine-protein kinase TYK2, sequence (P29597 whole entry): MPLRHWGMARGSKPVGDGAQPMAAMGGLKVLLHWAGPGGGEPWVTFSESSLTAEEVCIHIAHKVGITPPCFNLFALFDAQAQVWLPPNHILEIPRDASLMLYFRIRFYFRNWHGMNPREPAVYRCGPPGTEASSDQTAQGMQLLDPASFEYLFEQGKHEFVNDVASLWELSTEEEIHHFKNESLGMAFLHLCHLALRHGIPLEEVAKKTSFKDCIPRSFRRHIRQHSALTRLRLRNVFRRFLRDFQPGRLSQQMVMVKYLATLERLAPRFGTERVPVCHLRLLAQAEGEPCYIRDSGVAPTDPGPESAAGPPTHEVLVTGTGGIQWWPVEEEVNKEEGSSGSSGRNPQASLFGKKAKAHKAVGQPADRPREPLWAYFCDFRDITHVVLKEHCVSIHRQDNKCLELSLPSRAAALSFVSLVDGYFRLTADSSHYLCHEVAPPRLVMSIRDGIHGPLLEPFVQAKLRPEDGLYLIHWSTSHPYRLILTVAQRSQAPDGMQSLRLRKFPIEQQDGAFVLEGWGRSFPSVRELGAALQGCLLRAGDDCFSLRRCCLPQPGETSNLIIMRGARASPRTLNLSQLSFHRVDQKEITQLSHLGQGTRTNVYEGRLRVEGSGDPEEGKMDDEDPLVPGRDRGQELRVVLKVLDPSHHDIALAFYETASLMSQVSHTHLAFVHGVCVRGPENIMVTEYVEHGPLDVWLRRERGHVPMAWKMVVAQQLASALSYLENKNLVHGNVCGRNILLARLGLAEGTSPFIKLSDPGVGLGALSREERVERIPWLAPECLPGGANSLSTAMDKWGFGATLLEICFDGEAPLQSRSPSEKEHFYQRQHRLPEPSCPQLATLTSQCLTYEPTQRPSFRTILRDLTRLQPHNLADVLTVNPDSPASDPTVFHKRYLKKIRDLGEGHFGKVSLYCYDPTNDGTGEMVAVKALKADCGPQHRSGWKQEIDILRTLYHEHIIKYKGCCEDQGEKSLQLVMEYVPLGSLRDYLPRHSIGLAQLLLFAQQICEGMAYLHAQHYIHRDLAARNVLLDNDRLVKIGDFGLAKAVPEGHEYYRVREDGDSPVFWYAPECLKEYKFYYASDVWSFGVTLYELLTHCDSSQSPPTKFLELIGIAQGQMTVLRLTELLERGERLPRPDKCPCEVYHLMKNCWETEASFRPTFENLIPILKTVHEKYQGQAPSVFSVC
SRSF protein kinase 3 (Homo sapiens), sequence (Q9UPE1 whole entry): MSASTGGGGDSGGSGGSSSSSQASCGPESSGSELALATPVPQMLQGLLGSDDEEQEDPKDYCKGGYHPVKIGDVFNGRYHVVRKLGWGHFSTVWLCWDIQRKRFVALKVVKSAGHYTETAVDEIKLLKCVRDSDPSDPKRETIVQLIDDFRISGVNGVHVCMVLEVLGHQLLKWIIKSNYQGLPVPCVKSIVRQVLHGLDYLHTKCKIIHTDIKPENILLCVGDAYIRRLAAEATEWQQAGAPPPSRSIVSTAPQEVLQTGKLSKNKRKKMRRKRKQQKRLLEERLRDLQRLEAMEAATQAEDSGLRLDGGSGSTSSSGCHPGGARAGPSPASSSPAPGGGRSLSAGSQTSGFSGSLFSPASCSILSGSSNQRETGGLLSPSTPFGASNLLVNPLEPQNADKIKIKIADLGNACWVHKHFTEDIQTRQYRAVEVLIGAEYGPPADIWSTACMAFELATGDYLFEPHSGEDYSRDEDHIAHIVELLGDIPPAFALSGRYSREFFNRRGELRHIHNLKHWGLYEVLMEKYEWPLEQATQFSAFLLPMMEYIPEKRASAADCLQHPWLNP
Serine/threonine-protein kinase PAK 1 (Homo sapiens), sequence (Q13153 whole entry): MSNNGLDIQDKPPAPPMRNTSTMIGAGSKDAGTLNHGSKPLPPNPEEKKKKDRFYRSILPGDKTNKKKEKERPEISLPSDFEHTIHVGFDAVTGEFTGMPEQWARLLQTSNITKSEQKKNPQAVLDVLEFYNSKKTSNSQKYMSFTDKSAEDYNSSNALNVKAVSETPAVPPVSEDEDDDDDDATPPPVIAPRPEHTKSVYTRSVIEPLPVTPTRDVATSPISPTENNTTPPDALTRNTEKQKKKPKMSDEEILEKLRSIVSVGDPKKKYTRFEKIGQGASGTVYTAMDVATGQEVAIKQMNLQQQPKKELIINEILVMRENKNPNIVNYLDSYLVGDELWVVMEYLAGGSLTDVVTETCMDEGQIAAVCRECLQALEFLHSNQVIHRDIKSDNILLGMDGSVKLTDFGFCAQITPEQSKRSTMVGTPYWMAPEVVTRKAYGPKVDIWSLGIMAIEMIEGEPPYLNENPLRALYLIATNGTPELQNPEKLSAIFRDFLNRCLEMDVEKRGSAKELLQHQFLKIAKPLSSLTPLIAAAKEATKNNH
Dual specificity testis-specific protein kinase 1 (Homo sapiens), sequence (Q15569 whole entry, looked up): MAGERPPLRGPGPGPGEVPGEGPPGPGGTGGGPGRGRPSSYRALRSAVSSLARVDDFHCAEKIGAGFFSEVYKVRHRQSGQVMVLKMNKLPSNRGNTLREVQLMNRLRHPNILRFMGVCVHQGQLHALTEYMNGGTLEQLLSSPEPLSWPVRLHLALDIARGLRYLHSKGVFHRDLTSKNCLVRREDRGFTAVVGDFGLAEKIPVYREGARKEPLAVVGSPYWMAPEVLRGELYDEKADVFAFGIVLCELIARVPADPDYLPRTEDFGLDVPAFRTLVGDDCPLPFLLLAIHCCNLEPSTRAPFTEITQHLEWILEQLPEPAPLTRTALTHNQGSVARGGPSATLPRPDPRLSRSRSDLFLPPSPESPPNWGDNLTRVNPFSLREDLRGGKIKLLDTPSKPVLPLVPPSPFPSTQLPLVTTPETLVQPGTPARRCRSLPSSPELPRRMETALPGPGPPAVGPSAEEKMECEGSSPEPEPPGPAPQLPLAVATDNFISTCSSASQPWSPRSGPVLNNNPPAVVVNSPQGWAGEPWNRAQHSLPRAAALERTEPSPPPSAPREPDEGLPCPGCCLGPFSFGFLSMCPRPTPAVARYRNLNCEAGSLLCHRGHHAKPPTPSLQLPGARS

Work on `Cc1cc([C@@H](C)Nc2ccccc2C(=O)O)c2nc(N3CCOCC3)cc(=O)n2c1` [AZD-6482] yielded a % of control [1] of 100%.
In the case of `CC(=O)Nc1cccc(-n2c(=O)n(C3CC3)c(=O)c3c(Nc4ccc(I)cc4F)n(C)c(=O)c(C)c32)c1`, the % of control [2] is reported as 112%.
With `CCn1c(-c2nc3cc(C(=O)N4CCCC(N)C4)ccc3n2C)cc2ccccc21` (stereo not given) the pXC50 [3] was < 4.3 M.
With `CC[C@@H]1[C@H](F)C(=O)N[C@@H]1COc1nccc2cc(C(N)=O)c(OC)cc12` [ZIMLOVISERTIB] the % of inhibition [4] was -1.8%, the % of inhibition [5] was -0.2% and the % of inhibition [6] was 18.5%. For the same compound, the % of inhibition [7] was -9.6%.
`CN1Cc2nccc(-c3cn(C)nc3-c3ccc(F)cc3)c2C1=O` was tested, and the % of inhibition [8] was -13%.
`COCC(=O)NC/C=C/c1ccc2ncnc(Nc3ccc(Oc4ccc(C)nc4)c(C)c3)c2c1` [CP-724714] showed a % of control [9] of 100%, a % of control [10] of 75% and a % of control [11] of 90%.
Compound `COc1cc(N(C)c2ccnc3ccc(C(F)(F)F)cc23)cc(OC)c1OC` has a % binding [12] of 89%.
For `CN(C)CCOc1ccc(-c2nc(-c3ccncc3)c(-c3ccc4c(c3)CC/C4=N\O)[nH]2)cc1`, the % of control [13] was 100%.
Compound `O[C@H]1CC[C@H](Nc2ncc3nc(Nc4c(F)cc(F)cc4F)n([C@H]4CCOC4)c3n2)CC1` has a % of control [14] of 92%.
`C=CC(=O)Nc1ccc(C(=O)Nc2[nH]nc3c2CN(C(=O)N[C@H](CN(C)C)c2ccccc2)C3(C)C)cc1` showed a % of engagement [15] of -3.1%.
